Laboratory results reported in patent publication US20260263391A1, “COMPOUND AND USE THEREOF” (BENETHERA (SHAOXING) BIOTECHNOLOGY CO., LTD., priority 2023, published 2026).

Columns and labels:
[1] = tested on: Psoriasis mouse model; test: IL-23 psoriasis mouse model, Compound 1 by subcutaneous or intradermal injection, symptom score; type: in vivo, mice; details: for symptom score: 4 consecutive days, scored on Day 6, scale 0-5
Method: (§1) Psoriasis mouse model was established by intradermal injection of recombinant […] (1 ng/20 μL PBS, per mouse per day for 4 consecutive days) into depilated mice on the back.
On Day 2 after modeling, the psoriasis model mice were randomly divided into 3 groups, with the same number of mice in each group, and divided into a model group, treatment group (the treatment group included a subcutaneous treatment group and an intradermal treatment group), with the model group as a control. […] The model group was injected with 20 μL of normal saline intradermally. All three groups were injected for 4 consecutive days. On Day 6, the symptoms of the model and treatment groups were scored.
(§2) The calculation rule for the number of days was: the number of days will be calculated from the end of modeling, which will be recorded as Day 0, followed by Day 1, Day 2, etc.
(§3) Scoring criteria: 0 points, no symptom; 1 point, skin erythema; 2 points, scattered scurf, 3 points, diffuse dandruff, 4 points, skin sclerosis; 5 points, erythroderma or death.

[2] = tested on: Psoriasis mouse model; test: IL-23 psoriasis mouse model, comparative efficacy of Compound 1 ointment and Flecainide ointment, symptom score; type: in vivo, mice; details: 0.1% ointment; for therapeutic effect compared to the model group: 30 mg applied on the back for 4 consecutive days
Method: as §1
Each group was applied with different substances (as shown in Table 1) on the backs of the mice for 4 consecutive days. The symptoms of the model mice and the treatment group mice were scored from Day 1.
The calculation rule or the number of days was: the number of days will be calculated from the end of modeling, which will be recorded as Day 0, followed by Day 1, Day 2, etc.
The formulation and preparation method of Flecainide ointment can be referred to as Example 4, which differed from Example 4 only in that the main drug was replaced with an equivalent amount of Flecainide (wherein the mass concentration of flecainide in the flecainide ointment was 0.1%).
as §3

[3] = tested on: Psoriasis mouse model; details: ointment 30 mg applied for 4 consecutive days, scored on Day 6; 0.01%, 0.1%, 0.2%, 0.5%, 1% tested
Method: as §1, §2, §3

[4] = tested on: Psoriasis mouse model; details: 0.025% ointment, 200 mg applied on the back for 6 consecutive days
Method: Psoriasis mouse model was established by intradermal injection of recombinant TL-23 (1 ng/20 μL PBS, per mouse per day for 4 consecutive days) into depilated mice on the back.
Each group was applied with different substances (as shown in Table 3) on the backs of the mice for 6 consecutive days. From Day 1, the symptoms of the back skin of the model mice and the mice in the treatment group were scored every day.

[5] = 30 mg applied on the back, scale 0-5

CCCNCC(O)COc1ccccc1C(=O)CCc1ccccc1 (stereo not drawn) [Compound 1, propafenone]
therapeutic effect in dosing explorations ([1]; intracutaneous injections at 10 μg, 20 μg, 50 μg, 100 μg, 200 μg, 500 μg, 1 mg, 2 mg, 5 mg and 10 mg): had therapeutic effects | symptom score ([1]; intradermal injection on the back, 0.07 mg per mouse per day): ~2 points | therapeutic effect compared with the model group and the subcutaneous treatment group ([1]; intradermal injection, 0.07 mg per mouse per day, Day 6): significant therapeutic effect | symptom score ([1]; subcutaneous injection on the back, 0.07 mg per mouse per day): ~3 points | therapeutic effect compared to the model group [2]: significant therapeutic effect | symptom score on Day 2 [2, 5]: 2 points | symptom score on Days 3 to 4 ([2]; 30 mg applied on the back, Days 3 to 4, scale 0-5): 3 points | symptom score on Days 7 and 8 ([2]; 30 mg applied on the back, Days 7 and 8, scale 0-5): 1 points | symptom score from Day 5 ([2]; 30 mg applied on the back, from Day 5, scale 0-5): ≤ 2 points | effective window dose of ointment (mass concentration) compared to the model group [3]: 0.1%-0.5%

CCCNC[C@H](O)COc1ccccc1C(=O)CCc1ccccc1 [Compound 2, S-propafenone]
treatment effect [4]: showed no treatment effect

CCCNC[C@@H](O)COc1ccccc1C(=O)CCc1ccccc1 [Compound 3, R-propafenone]
treatment effect [4]: the treatment effect was more obvious

O=C(NCC1CCCCN1)c1cc(OCC(F)(F)F)ccc1OCC(F)(F)F (stereo not drawn) [Flecainide]
therapeutic effect compared to the model group [2]: neither the Flecainide ointment nor the ointment alone had a therapeutic effect | symptom score on Day 2 [2, 5]: 3 points | symptom score on Days 2 to 7 ([2]; 30 mg applied on the back, Days 2 to 7, scale 0-5): 3 points
